The assay deals with Peroxisome proliferator-activated receptor gamma (Homo sapiens) (UniProt P37231). The experiment in a line: Agonist activity at human PPARgamma at 100 uM by GAL4 transactivation assay relative to Rosiglitazone.
Turning to `COC(=O)C(Cc1ccc(OCCN2CCC(C)(C)c3cc(C(N=O)c4ccccc4)ccc32)cc1)C(=O)OC` (centres undefined) [dimethyl 2-(4-(2-(6-((hydroxyimino)(phenyl)methyl)-4,4-dimethyl-3,4-dihydroquinolin-1(2H)-yl)ethoxy)benzyl)malonate], the response was half-maximal at 195 nM (EC50).
With `COC(=O)C(Cc1ccc(OCCN2CCC(C)(C)c3cc(C(=O)c4ccccc4)ccc32)cc1)C(=O)OC` [dimethyl 2-(4-(2-(6-benzoyl-4,4-dimethyl-3,4-dihydroquinolin-1(2H)-yl)ethoxy)benzyl)malonate], the concentration giving a half-maximal response (EC50) (commonly the midpoint of the concentration-response curve) is 152 nM.
`CCO[C@@H](Cc1ccc(OCCc2ccc(OS(C)(=O)=O)cc2)cc1)C(=O)O` [(2S)-2-ethoxy-3-(4-{2-[4-(methanesulfonyloxy)phenyl]ethoxy}phenyl)propanoic acid] returned an EC50 of 37 nM.
The figure for `CCOC(=O)C(Cc1ccc(OCCN2CCC(C)(C)c3cc(C(N=O)c4ccccc4)ccc32)cc1)OCC` (centres undefined) [ethyl 2-ethoxy-3-(4-(2-(6-((hydroxyimino)(phenyl)methyl)-4,4-dimethyl-3,4-dihydroquinolin-1(2H)-yl)ethoxy)phenyl)propanoate] is 48 nM.

The values above are taken from BindingDB's records for doi:10.1016/j.bmcl.2008.01.067 (Spot-Ea3857, 2008).
